Reference: paper PMC3943701 (Biochimica et biophysica acta, 2013)
Entries after “also recorded” stand apart in the source; their conditions may differ. Read-outs that look alike come from different tables or passages of the source.

How the values were obtained:
[1] = test system: M2(19–62) wild type construct; format: biochemical, influenza A virus (A/Udorn/72); conditions: liposomes pre-mixed with amantadine HCl 3 h, 18°C
[2] = test system: M2(19–62) thiazolylalanine construct; format: biochemical, influenza A virus (A/Udorn/72); conditions: pH 2.4
influenza A/M2 protein = conditions: sensitive circulating influenza strains; ref [2], [3]; cited from earlier work
M2 His37 = conditions: addition of amantadine; ref [17]; cited from earlier work
[3] = in solution, no reference given, cited from earlier work

Compound	inhibitory effect of amantadine on flux (in words) ([1]; bathing buffer pH 2.4)	amantadine sensitivity of flux (in words) ([1]; bathing buffer pH 7.4 and 4.9)	amantadine inhibition of currents (in words) [2]	inhibition of M2 proton transport (in words) (influenza A/M2 protein)	effect on His37 ring flip, protonation and deprotonation (in words) (M2 His37)	solution pKa of side chain [3]	solution pKa of side chain ([3]; listed as imidazole)
NC12CC3CC(CC(C3)C1)C2 [amantadine]	No inhibitory effect; also recorded: begins to be lost	amantadine-sensitive	robust amantadine inhibition	inhibited	significantly inhibited	–	–
N[C@@H](Cc1c[nH]cn1)C(=O)O [histidine]	–	–	–	–	–	6.5	~ 6.5
CC(N)C12CC3CC(CC(C3)C1)C2 (centres unmarked) [rimantadine]	–	–	–	inhibited	–	–	–
